Source: patent US20100190723A1, “PREVENTIVE OR THERAPEUTIC COMPOSITION FOR LIVER DISEASE” (priority 2007, published 2010)
Square brackets hold non-standard residues; d marks the D form. Ends that are not written are not given here. pGlu = O=C1CC[C@@H](C(=O)O)N1

Columns and labels:
[1] = tested on: Hepatic Disorder Rat Model; assay: Administration test using hepatic disorder rat model (D-galactosamine), oral peptide (Test Example 2); type: in vivo; settings: peptide 40 mg/kg orally, Wistar rats; for GOT: blood GOT level 24 hours after D-galactosamine 800 mg/kg i.p., water control 2180; for GPT: blood GPT level 24 hours after D-galactosamine 800 mg/kg i.p., water control 391
Description: (§1) Wistar rats (4- to 5-week old) were used for the experiment. Rats were preliminarily fed for a week with purified standard feeds and subjected to fasting for 4 hours. pyroGlu-Leu obtained in Production Example 2 and pyroGlu-Ile obtained in Production Example 3 were each dissolved in water at 10 mg/l ml, and the resulting solutions were administered intraperitoneally in amounts of 20 mg/kg each. D-galactosamine (Sigma) was administered intraperitoneally in an amount of 800 mg/kg 1 hour later. Rats were allowed to freely eat 4 hours after D-galactosamine administration. Each group consisted of 5 rats, and water was administered to the control group instead of the peptide of the present invention.
(§2) Blood was sampled from the rats 24 hours after D-galactosamine administration, and GOT and GPT levels in the blood were assayed to compare the degrees of hepatic disorders.
(§3) GOT and GPT levels were assayed in accordance with the JSCC standardization method (Hiroshi Miura, Japanese Journal of Clinical Medicine (Nippon Rinsho), 53-reprinted-266, 1995).
The test was carried out in the same manner as in Test Example 1. pyroGlu-Gln-Gln, pyroGlu-Gln, pyroGlu-Leu, or pyroGlu-Ile obtained in Production Example 5 was dissolved in water at 10 mg/l ml, and the resulting solution was administered orally to rats in amounts of 40 mg/kg.

[2] = tested on: Hepatic Disorder Rat Model; assay: Administration test using hepatic disorder rat model (D-galactosamine), intraperitoneal peptide (Test Example 1); type: in vivo; settings: peptide 20 mg/kg intraperitoneally 1 hour before, Wistar rats; for GOT: blood GOT level 24 hours after D-galactosamine 800 mg/kg i.p., water control 391; for GPT: blood GPT level 24 hours after D-galactosamine 800 mg/kg i.p., water control 50
Description: as §1, §2, §3

| Substance | GOT [1] | GPT [1] | GOT [2] | GPT [2] |
| --- | --- | --- | --- | --- |
| [pGlu]-Gln | 509 IU/L | 124 IU/L | – | – |
| [pGlu]-Gln-Gln | 524 IU/L | 100 IU/L | – | – |
| [pGlu]-Ile | 491 IU/L | 98 IU/L | 314 IU/L | 45 IU/L |
| [pGlu]-Leu | 555 IU/L | 131 IU/L | 215 IU/L | 30 IU/L |
